According to patent US20040152700A1, “Novel use of 2-phenyl-substituted imidazotriazinones” (priority 2001, published 2004):

How the values were obtained:
[1] = test system: memory power of rats (object recognition); experiment: Object recognition test; type: in vivo; conditions: oral 1.0, 3.0 or 10 mg/kg in Tylose immediately after first passage, second passage 24 hours later
Protocol: The object recognition test is a memory test. It measures the ability of rats (and mice) to differentiate between known and unknown objects.
The test was carried out as described (Blokland et al. NeuroReport 1998, 9, 4205-4208; Ennaceur, A., Delacour, J., Behav. Brain Res. 1988, 31, 47-59; Ennaceur, A., Meliani, K., Psychopharmacology 1992, 109, 321-330; Prickaerts, et al. Eur. J. Pharmacol. 1997, 337, 125-136).
In a first passage, a rat is confronted with two identical objects in an otherwise empty relatively large observation arena. The rat will investigate, i.e. sniff and touch, both objects thoroughly. In a second passage, after an interval of 24 hours, the rat is again placed in the observation arena. One of the known objects is now replaced by a new, unknown object. If a rat recognizes the known object, it will especially investigate the unknown object. After 24 hours, however, a rat has normally forgotten which object it has already investigated in the first passage, and will therefore inspect both objects to the same extent. […] It will investigate the new, unknown object in more detail than the already known one. This memory power is expressed in a discrimination index. […]

[2] = test system: memory capability of mice; conditions: avoidance test; cited from earlier work

| Structure (SMILES) | memory power in the second passage compared with the control condition [1] | action on the memory capability [2] |
| --- | --- | --- |
| CCCc1nc(C)c2c(=O)[nH]c(-c3cc(S(=O)(=O)N4CCN(C)CC4)ccc3OCC)nn12 [Example 1, 2-[2-ethoxy-5-(4-methyl-piperazine-1-sulphonyl)-phenyl]-5-methyl-7-propyl-3H-imidazo[5,1-f][1,2,4]triazin-4-one] | improved | – |
| CCCc1nn(C)c2c(=O)[nH]c(-c3cc(S(=O)(=O)N4CCN(C)CC4)ccc3OCC)nc12 [Sildenafil, 5-[2-ethoxy-5-(4-methylpiperazin-1-ylsulphonyl)phenyl]1,6-dihydro-1-methyl-3-propylpyrazolo[4,3-d]pyrimidin-7-one] | – | improving action |
